According to US5061626A, “Antigenic anarogues of platelet activating factor” (University of Sydney, priority 1986, dated 1991):
Each block holds one molecule with its values, some of them ahead of it.

Legend:
PAF-acetylhydrolase [1] = test: Determination of PAF-acetylhydrolase activity in diluted human serum (remaining PAF read by platelet aggregation); type: biochemical; conditions: human sera diluted 1 in 100 with PBS, 27 hours at 25° C.
Method: (§1) Sera were diluted 1 in 100 in either PBS or 0.1% "Tween" in PBS (v/v). Diluted acid-treated sera were prepared by mixing sera (1 vol.) with 0.1M citrate buffer pH 3.0 (2 vol.), and then 15 minutes later with PBS ([…].).
(§2) The solution (50μl) was then tested for platelet aggregation activity at 37° C. in a Payton dual channel aggregometer using human platelet-rich plasma (500 μl).

PAF-acetylhydrolase [2] = test: Determination of PAF-acetylhydrolase activity in diluted rabbit serum (remaining PAF read by platelet aggregation); type: biochemical; conditions: rabbit sera diluted 1 in 100 with PBS, 27 hours at 25° C.
Method: as §1, §2

PAF-antibodies = test: Competition assay of test substance against ^3 H-PAF for binding to PAF-antibodies; set-up: species or system rabbit; conditions: ^3 H-PAF 22,676 cpm
Method: The resulting mixture was centrifuged, washed twice with phosphate buffered saline containing 0.1% "Tween" 20, centrifuged and the sediment transferred in water (200 μl) to the liquid scintillant "Aquasol" (3 ml) and counted in a liquid scintillation counter.

Molecule: 1-O-alkyl-2-O-acetyl-sn-glycero-3-phosphocholine [PAF]
stability of PAF in serum (PAF-acetylhydrolase [1]): destroyed
stability of PAF in serum (PAF-acetylhydrolase [2]): destroyed
ASSAY COUNT (PAF-antibodies; test substance 0.5 ng): 2,561 cpm
ASSAY/CONTROL (PAF-antibodies; test substance 0.5 ng): 95.2%
ASSAY COUNT (PAF-antibodies; test substance 5 ng): 2,316 cpm
ASSAY/CONTROL (PAF-antibodies; test substance 5 ng): 85.7%
ASSAY COUNT (PAF-antibodies; test substance 50 ng): 1,602 cpm
ASSAY/CONTROL (PAF-antibodies; test substance 50 ng): 57.8%
ASSAY COUNT (PAF-antibodies; test substance 500 ng): 598 cpm
ASSAY/CONTROL (PAF-antibodies; test substance 500 ng): 18.6%
ASSAY COUNT (PAF-antibodies; test substance 5,000 ng): 228 cpm
ASSAY/CONTROL (PAF-antibodies; test substance 5,000 ng): 4.1%

Molecule: lecithin
ASSAY COUNT (PAF-antibodies; test substance 500 ng): 2,545 cpm
ASSAY/CONTROL (PAF-antibodies; test substance 500 ng): 99.6%
ASSAY COUNT (PAF-antibodies; test substance 5,000 ng): 2,994 cpm

Molecule: CCCCCCCCCCCCCCCCOC[C@@H](O)COP(=O)([O-])OCC[N+](C)(C)C [lyso-PAF]
ASSAY COUNT (PAF-antibodies; test substance 580 ng): 2,744 cpm
ASSAY COUNT (PAF-antibodies; test substance 5,800 ng): 2,746 cpm

ASSAY COUNT (PAF-antibodies; test substance 500 ng): 2,668 cpm
ASSAY/CONTROL (PAF-antibodies; test substance 500 ng): 99.4%
ASSAY COUNT (PAF-antibodies; test substance 5,000 ng): 2,658 cpm
ASSAY/CONTROL (PAF-antibodies; test substance 5,000 ng): 99.0%
Molecule: lyso-lecithin
